Test [1] has as its target human tankyrase 1 PARP catalytic domain, TNKS1P (GST-tagged) (Homo sapiens (Human), UniProt O95271). Kind of test: TNKS1 autoparsylation (AP) biochemical assay, LC/MS detection of nicotinamide. The conditions noted are these: 20 nM enzyme, 250 μM NAD+, 60 min room temperature. Here is the method:
The human tankyrase 1 PARP catalytic domain, TNKS1P, was cloned into a pDONR221 vector using the Invitrogen Gateway Technology. This entry clone was then subcloned into the destination vector pDEST20 to obtain the N-terminal Glutathione S-transferase (GST)-tagged fusion protein.
The autoparsylation activity of the TNKS 1/2 or PARP1/2 enzymes was measured by the liquid chromatography-mass spectrometry (LC/MS) detection of nicotinamide as readout. Compound activity in inhibiting the TNKS and PARP autoparsylation was evaluated by IC50 measurements.

Another test deals with Axin2 protein. As to the kind of experiment: Cellular ELISA assay for stabilizing the Axin2 protein in SW480 cells. The format is cell-based. Particulars: 24 hrs treatment, read-out: Axin AC50. How it is done: Compound activity in stabilizing the Axin2 protein was measured by Sandwich Enzyme-Linked Immuosorbent (ELISA) assay in the colorectal cell line SW480. 30,000 SW480 cells were seeded per well in 96-well plate and incubated overnight prior to compound treatment. Cells were then treated with compounds in 6-point dilution starting at 10 μM for 24 hrs. Cells were then washed with 100 μL of cold Phosphate Buffer Saline (PBS), and lysed in 125 μl of cold 1× lysis buffer (Cell Signaling Technology, 9803) supplemented with Protease inhibitor (Roche, 11836170) and Phosphatase inhibitors (Sigma, P2850, P5726). For the ELISA assay, anti Axin-2 capture antibody (Strategic Diagnostics) antibody was diluted to a concentration of 1 μg/ml (1:1000) in Carbonate Coating buffer, pH 9.2 (Sigma, C3041-50CAP). 100μ of the diluted anti Axin-2 capture antibody per well was then used to coat the 96-well ELISA plate (Thermo Electron Corp., MicroLite 1 flat bottom plate #7571) overnight at 4° C. Plates were then washed three times with 300 μl/well of wash solution, PBST20 (PBS+0.05% Tween), and blocked with 300 μl/well 1% BSA/PBS (BSA, Millipore Probumin #82-045-1) for 1.5 hours at room temperature while shaking gently. After blocking, plates were then washed three times with 300 μl/well of wash solution. 100 μL of prepared SW480 cell lysate was then added to each well and incubated at room temperature for 2 hours while shaking gently. After washing, 100 μL of Biotinylated anti-Axin2 antibody (CST, 2151) was added to each well and incubated room temperature for 2 hours. 100 μL of Streptavidin-HRP (R&D systems, DY998) diluted 1:200 in 1% BSA/PBS was then added in each well and incubate for 30 mins at R/T in the dark. Signal was detected by Chemiluminescence (Pierce SuperSignal ELISA Femto #3704), and measured on PerkinElmer Wallac 1420 plate reader.
A general note: ELISA stands for enzyme-linked immunosorbent assay.

The test system of test [2] is Non-small lung cancer ABC-1 cells. As to the kind of experiment: Cellular proliferation assay, ABC-1 cells (CellTiter-Glo). The format is cell-based. Particulars: 3 days of compound treatment. How it is done:
Non-small lung cancer ABC-1 cells were plated at 5000 cells per well in 96-well plates and treated with 8 serial compound dilutions starting from 10 μM as the highest concentration. Viable cells were measured after 3 days of compound treatment using the CellTiter-Glo assay (Promega, G7570). Assay was performed following the manufacture protocol.
(In general: Cellular ATP, detected with luciferase, serves as a proxy for viable cell number.)

The target of the next test is Human PARP1 (Homo sapiens (Human), UniProt P09874). Kind of test: PARP1 autoparsylation biochemical assay, LC/MS detection of nicotinamide. The conditions noted are these: read-out: PARP1 IC50, 20 nM enzyme, 250 μM NAD+, 60 min room temperature.
Sequence of Human PARP1 (P09874 whole entry): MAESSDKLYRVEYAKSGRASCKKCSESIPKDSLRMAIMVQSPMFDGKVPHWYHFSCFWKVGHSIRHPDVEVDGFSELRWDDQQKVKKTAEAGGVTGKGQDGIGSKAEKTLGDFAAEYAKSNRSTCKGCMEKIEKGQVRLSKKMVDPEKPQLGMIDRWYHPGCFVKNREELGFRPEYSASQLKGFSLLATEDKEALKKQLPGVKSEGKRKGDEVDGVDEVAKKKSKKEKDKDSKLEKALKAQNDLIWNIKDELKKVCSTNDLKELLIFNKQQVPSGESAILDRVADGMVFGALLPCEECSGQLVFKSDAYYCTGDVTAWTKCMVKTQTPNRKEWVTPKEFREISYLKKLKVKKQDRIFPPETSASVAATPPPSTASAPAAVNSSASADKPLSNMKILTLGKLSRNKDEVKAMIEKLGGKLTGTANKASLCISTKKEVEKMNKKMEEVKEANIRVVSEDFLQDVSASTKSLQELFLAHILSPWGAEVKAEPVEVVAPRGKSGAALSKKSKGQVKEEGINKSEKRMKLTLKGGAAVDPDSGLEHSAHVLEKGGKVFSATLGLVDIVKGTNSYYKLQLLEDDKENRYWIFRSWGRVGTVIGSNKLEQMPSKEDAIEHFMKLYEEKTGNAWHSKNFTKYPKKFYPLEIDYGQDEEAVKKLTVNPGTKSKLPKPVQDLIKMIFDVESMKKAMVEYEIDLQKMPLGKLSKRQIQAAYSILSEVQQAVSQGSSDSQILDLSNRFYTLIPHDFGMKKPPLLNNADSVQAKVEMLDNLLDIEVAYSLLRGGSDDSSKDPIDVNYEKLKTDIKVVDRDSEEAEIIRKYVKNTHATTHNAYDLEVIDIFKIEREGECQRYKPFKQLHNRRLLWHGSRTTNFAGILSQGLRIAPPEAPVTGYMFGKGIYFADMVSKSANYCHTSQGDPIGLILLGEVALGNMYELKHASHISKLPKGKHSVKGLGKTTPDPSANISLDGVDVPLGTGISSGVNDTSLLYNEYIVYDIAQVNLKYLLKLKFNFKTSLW
The target of a further test is PARP2 (Mus musculus (Mouse), UniProt O88554). As to the kind of experiment: PARP2 autoparsylation biochemical assay, LC/MS detection of nicotinamide. The conditions noted are these: read-out: PARP2 Ic50, 20 nM enzyme, 250 μM NAD+, 60 min room temperature.
Sequence of PARP2 (O88554 whole entry, the tested form may be a part): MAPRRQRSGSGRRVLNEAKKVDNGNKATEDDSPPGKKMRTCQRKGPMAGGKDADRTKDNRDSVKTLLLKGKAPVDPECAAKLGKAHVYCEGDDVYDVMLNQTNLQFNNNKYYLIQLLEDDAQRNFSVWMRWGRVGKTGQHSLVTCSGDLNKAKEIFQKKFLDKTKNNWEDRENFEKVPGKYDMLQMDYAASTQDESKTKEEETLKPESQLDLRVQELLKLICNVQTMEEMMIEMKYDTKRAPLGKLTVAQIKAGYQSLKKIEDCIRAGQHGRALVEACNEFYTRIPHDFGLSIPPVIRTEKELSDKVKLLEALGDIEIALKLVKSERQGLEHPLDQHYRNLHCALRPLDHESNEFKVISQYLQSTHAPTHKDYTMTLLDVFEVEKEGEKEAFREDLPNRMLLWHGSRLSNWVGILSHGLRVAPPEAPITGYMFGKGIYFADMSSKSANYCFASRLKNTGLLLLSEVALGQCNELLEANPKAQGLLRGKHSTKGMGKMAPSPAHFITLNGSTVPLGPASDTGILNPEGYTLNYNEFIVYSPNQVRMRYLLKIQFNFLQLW
In test [3] the target is tankyrase 2 protein PARP domain, TNKS2P (GST-tagged) (Homo sapiens (Human), UniProt Q9H2K2). Kind of test: TNKS2 autoparsylation (AP) biochemical assay, LC/MS detection of nicotinamide. The conditions noted are these: 20 nM enzyme, 250 μM NAD+, 60 min room temperature.
Sequence of tankyrase 2 protein PARP domain, TNKS2P (GST-tagged) (Q9H2K2 959-1164): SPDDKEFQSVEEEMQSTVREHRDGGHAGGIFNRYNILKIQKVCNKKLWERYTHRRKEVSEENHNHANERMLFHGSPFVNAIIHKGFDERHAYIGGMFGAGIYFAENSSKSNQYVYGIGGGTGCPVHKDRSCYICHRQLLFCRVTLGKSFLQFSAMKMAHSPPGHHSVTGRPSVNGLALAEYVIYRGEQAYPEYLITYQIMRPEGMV
Test [4] concerns Wnt ligand-induced signaling. Kind of test: Wnt-responsive Super-TOpFlash (STF) luciferase reporter gene assay in HEK293 cells. Type of test: cell-based. Particulars: Homo sapiens, Wnt3A condition medium induced. Here is the method: Compound activity in inhibiting Wnt ligand-induced signaling was measured using a Wnt-responsive Super-TOpFlash (STF) luciferase reporter gene assay in HEK293 cells. On day 1 of the assay, cells were plated at a density of 8000 cells per well of 384-well plate in 25 μl medium containing 5% fetal bovine serum (FBS). On the second day, […] condition medium (CM) produced from mouse L cells was added to the cells to induce Wnt signaling, followed by addition of 5 μL of compounds each well in 10-point serial dilution. On the third day, the luciferase activity was measured by the Bright-Glo™ Luciferase Assay System following manufacture's protocol (Promega, E2620). The Inhibition was calculated as: (Maximum Wnt-induced signaling−Sample)/(Maximum Wnt-induced signaling−Background)*100. “Maximum Wnt-induced signaling” is the STF signal level induced by 20% Wnt3A CM without compound; and “Background” is the STF signal level without the addition of Wnt3A CM or compound.
In general terms: A reporter such as luciferase makes a cellular process visible.

Each structure is given as a SMILES string. Where two headings read alike, the source gives them in different places. A value given as a limit tells only on which side of the number the result lay.

Broadly, the IC50 is the point on the concentration scale where inhibition reaches its midpoint. The term AC50 denotes the midpoint of the concentration-response curve, whichever way the signal moves.

Sequence of human tankyrase 1 PARP catalytic domain, TNKS1P (GST-tagged) (O95271 1112-1317): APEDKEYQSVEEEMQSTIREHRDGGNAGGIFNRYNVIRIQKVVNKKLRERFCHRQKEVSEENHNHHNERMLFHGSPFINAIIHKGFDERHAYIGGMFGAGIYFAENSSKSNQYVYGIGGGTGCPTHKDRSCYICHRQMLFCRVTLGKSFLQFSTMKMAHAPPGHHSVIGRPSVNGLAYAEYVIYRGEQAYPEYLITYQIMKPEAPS

With `COc1ccc(C(=O)C2CCN([C@@H]3CCN(CC(=O)Nc4nnc5n4CCS5)C3=O)CC2)cc1` (single isomer, unassigned) [Example 34], the IC50 in test [1] is 38 ± 1 nM; in test [2], 49 nM; at Human PARP1 it was more than 19000 nM; on PARP2, 6300 ± 700 nM. For the same compound, in the test on Axin2 protein, the AC50 turned out to be 78 ± 6 nM.

For `COc1ccc(C(=O)C2CCN(C3CCN(Cc4nc5c(c(=O)[nH]4)COCC5)C3=O)CC2)cc1` (stereo not shown) [Example 2, 2-{3-[4-(4-Methoxy-benzoyl)-piperidin-1-yl]-2-oxo-pyrrolidin-1-ylmethyl}-3,5,7,8-tetrahydro-pyrano[4,3-d]pyrimidin-4-one], the IC50 in test [3] is 15 ± 4 nM; in test [1], 33 ± 7 nM; in test [4], 1.3 ± 0.8 nM; in test [2] (Homo sapiens, 72 h), 30 ± 5 nM; on Human PARP1, 9300 ± 1800 nM; on PARP2, 5400 ± 400 nM. Also, the AC50 with Axin2 protein (Homo sapiens) stood at 31.3 ± 3.6 nM.

`COc1ccc(C(=O)C2CCN([C@H]3CCN(Cc4nc5c(c(=O)[nH]4)COCC5)C3=O)CC2)cc1` [Example 3, 2-{(S)-3-[4-(4-Methoxy-benzoyl)-piperidin-1-yl]-2-oxo-pyrrolidin-1-ylmethyl}-3,5,7,8-tetrahydro-pyrano[4,3-d]pyrimidin-4-one]: the IC50 came out at 9.5 ± 0.7 nM in test [3]; 12.8 ± 2.6 nM in test [1]; 1.1 ± 0.4 nM in test [4]; 12 ± 3 nM in test [2] (Homo sapiens, 72 h); 21000 ± 8700 nM on Human PARP1; 4800 ± 600 nM on PARP2. Further, the AC50 in the test with Axin2 protein (Homo sapiens) is 6.3 ± 1.3 nM.

With `COc1ccc(C(=O)C2CCN(C3CCN(Cc4nc5c(cnn5C)c(=O)[nH]4)C3=O)CC2)cc1` (stereo not shown) [Example 6, 6-{3-[4-(4-Methoxy-benzoyl)-piperidin-1-yl]-2-oxo-pyrrolidin-1-ylmethyl}-1-methyl-1,3a,5,7a-tetrahydro-pyrazolo[3,4-d]pyrimidin-4-one], the IC50 in test [3] was 25 ± 4 nM; in test [1], 22 ± 4 nM; in test [4], 5.9 ± 1.5 nM; in test [2] (Homo sapiens, 72 h), 43 nM; at Human PARP1, more than 19000 nM; on PARP2, more than 19000 nM. Also, the AC50 in the test with Axin2 protein (Homo sapiens) came to 23 ± 3 nM.

Take `O=C(c1ccc(Cl)cc1)C1CCN(C2CCN(Cc3nc4c(c(=O)[nH]3)COCC4)C2=O)CC1` (stereo not shown) [Example 9, 2-{3-[4-(4-Chloro-benzoyl)-piperidin-1-yl]-2-oxo-pyrrolidin-1-ylmethyl}-3,5,7,8-tetrahydro-pyrano[4,3-d]pyrimidin-4-one]: the IC50 amounted to 23 ± 1 nM in test [3]; 30 ± 2 nM in test [1]; 3 ± 3 nM in test [4]; 60 nM in test [2] (Homo sapiens, 72 h); 16600 ± 4200 nM at Human PARP1; 4620 ± 950 nM at PARP2. Moreover, the AC50 in the test with Axin2 protein (Homo sapiens) amounted to 52 ± 4 nM.

Consider `O=C(c1ccc(F)cc1)C1CCN(C2CCN(Cc3nc4c(c(=O)[nH]3)COCC4)C2=O)CC1` (stereo not shown) [Example 10, 2-{3-[4-(4-Fluoro-benzoyl)-piperidin-1-yl]-2-oxo-pyrrolidin-1-ylmethyl}-3,5,7,8-tetrahydro-pyrano[4,3-d]pyrimidin-4-one], for which the IC50 in test [3] is 6 ± 1 nM; in test [1], 27 ± 1 nM; in test [4], 10 ± 1 nM; in test [2] (Homo sapiens, 72 h) it was 291 nM; at Human PARP1, 23600 ± 2700 nM; at PARP2 it was 9200 ± 2200 nM. The AC50 in the test on Axin2 protein (Homo sapiens) worked out at 257 ± 67 nM.

As for `O=C(c1ccc(F)cc1)C1CCN([C@H]2CCN(Cc3nc4c(c(=O)[nH]3)COCC4)C2=O)CC1` [Example 11, 2-{(S)-3-[4-(4-Fluoro-benzoyl)-piperidin-1-yl]-2-oxo-pyrrolidin-1-ylmethyl}-3,5,7,8-tetrahydro-pyrano[4,3-d]pyrimidin-4-one], the IC50 stood at 17 ± 2 nM in test [3]; 37 ± 5 nM in test [1]; 5 ± 5 nM in test [4]; 301 nM in test [2] (Homo sapiens, 72 h); 37400 ± 300 nM on Human PARP1; 10200 ± 4200 nM at PARP2. For the same compound, the AC50 in the test with Axin2 protein (Homo sapiens) worked out at 132 ± 22 nM.

For the compound `COc1ccc(C(=O)C2CCN([C@H]3CCN(Cc4nc5c(c(=O)[nH]4)COCC5)C3=O)CC2)cc1C` [Example 13, 2-{(S)-3-[4-(4-Methoxy-3-methyl-benzoyl)-piperidin-1-yl]-2-oxo-pyrrolidin-1-ylmethyl}-3,5,7,8-tetrahydro-pyrano[4,3-d]pyrimidin-4-one], the IC50 is 3 ± 1 nM in test [3]; 6 ± 1 nM in test [1]; 1.2 ± 1 nM in test [4]; 3 nM in test [2] (Homo sapiens, 72 h); 24000 ± 3000 nM on Human PARP1; 4000 ± 1100 nM on PARP2. Moreover, the AC50 in the test with Axin2 protein (Homo sapiens) was 2.1 ± 0.1 nM.

As for `COc1ccc(C(=O)C2CCN(C3CCN(Cc4nc(C)cc(=O)[nH]4)C3=O)CC2)cc1` (stereo not shown) [Example 23, 2-{3-[4-(4-Methoxy-benzoyl)-piperidin-1-yl]-2-oxo-pyrrolidin-1-ylmethyl}-6-methyl-3H-pyrimidin-4-one], the IC50 in test [3] came to 137 ± 22 nM; in test [1] it was 286 ± 5 nM; in test [4], 56 ± 33 nM; in test [2] (Homo sapiens, 72 h), 489 nM. Besides, the AC50 in the test on Axin2 protein (Homo sapiens) is 227 ± 25 nM.

`COc1ccc(C(=O)C2CCN([C@@H]3CCN(Cc4nc5ccccc(=O)c5[nH]4)C3=O)CC2)cc1C` [Example 29, 2-{(R)-3-[4-(4-Methoxy-3-methyl-benzoyl)-piperidin-1-yl]-2-oxo-pyrrolidin-1-ylmethyl}-3H-cycloheptaimidazol-4-one]: the IC50 in test [3] was determined as 112 nM; in test [1] it was 278 ± 50 nM; in test [4], 14 ± 4 nM; in test [2] (Homo sapiens, 72 h), 10 nM. Also, the AC50 with Axin2 protein (Homo sapiens) stood at 9 ± 1 nM.

Turning to `COc1ccc(C(=O)C2CCN([C@@H]3CCN(Cc4nc5ccccc(=O)c5[nH]4)C3=O)CC2)cc1` [Example 31, 2-{(R)-3-[4-(4-Methoxy-benzoyl)-piperidin-1-yl]-2-oxo-pyrrolidin-1-ylmethyl}-3H-cycloheptaimidazol-4-one], the IC50 stood at 1080 ± 10 nM in test [1]; 65 ± 14 nM in test [4]; 85 nM in test [2] (Homo sapiens, 72 h); 10100 ± 2600 nM on PARP2. Moreover, in the test on Axin2 protein (Homo sapiens), the AC50 was determined as 89 ± 2 nM.

`COc1ccc(C(=O)C2CCN(C3CCN(CC(=O)Nc4nnc5n4CCS5)C3=O)CC2)cc1` (stereo not shown) [Example 32, N-(5,6-dihydrothiazolo[2,3-c][1,2,4]triazol-3-yl)-2-(3-(4-(4-methoxybenzoyl)piperidin-1-yl)-2-oxopyrrolidin-1-yl)acetamide]: the IC50 in test [1] was 43 ± 1 nM; in test [2] (Homo sapiens, 72 h), 76 nM; on Human PARP1 it was more than 19000 nM; at PARP2, 5090 ± 120 nM. In the test on Axin2 protein (Homo sapiens), the AC50 was found to be 131 ± 8 nM.

As to `COc1ccc(C(=O)C2CCN(C3CCN(CC(=O)Nc4nnc5ccccn45)C3=O)CC2)cc1` (stereo not shown) [Example 35, N-([1,2,4]triazolo[4,3-a]pyridin-3-yl)-2-(3-(4-(4-methoxybenzoyl)piperidin-1-yl)-2-oxopyrrolidin-1-yl)acetamide], the IC50 in test [3] is 636 ± 36 nM; in test [1], 2470 ± 30 nM; in test [4], 940 ± 70 nM; in test [2] (Homo sapiens, 72 h), 2630 nM. For the same compound, in the test with Axin2 protein (Homo sapiens), the AC50 is 1890 ± 160 nM.
